In PMC6982741, “Design, Synthesis and Study of Nitrogen Monoxide Donors as Potent Hypolipidaemic and Anti-Inflammatory Agents” (Molecules, 2019):
pIC50: −log10 of the molar value. Like-named read-outs stand apart in the source and are kept apart here. Marks after values point to notes of the source that are not given here.

How the values were obtained:
hyperlipidaemic rats = test: Triton WR1339 (tyloxapol) induced hyperlipidaemia in rats; assay type: in vivo, Wistar rats; settings: tyloxapol 200 mg/kg i.p.; for inhibition in vivo at 150 µmol/kg / inhibition in vivo at 300 µmol/kg / inhibition in vivo at 500 µmol/kg: Rattus norvegicus, ip, 24 h; for inhibition in vivo at 300 µmol/kg: 300 μmol/kg i.p.; for inhibition in vivo at 500 µmol/kg: 500 μmol/kg i.p.
Description: The pleiotropic effects of statins, used as hypolipidaemic drugs, include antioxidant ability and direct increase of eNOS activity, in addition to inhibition of 3-hydroxy-3-methylglutaryl coenzyme A (HMG-CoA) reductase. […] The systemic administration of Triton-WR1339 (tyloxapol) to rats induces a biphasic elevation of plasma cholesterol, atherogenic VLDL cholesterol and LDL cholesterol, as well as triglyceride levels. […] Agents shown to be active in phase I are considered to interfere with cholesterol biosynthesis.
κ-Carrageenan and lipoxygenase type I-B from soybean were purchased from Sigma (St. Louis, MO, U.S.A.). For the in vivo experiments, Wistar rats (180–220 g, 3–4 months old) were kept in the Centre of the School of Veterinary Medicine (EL54 BIO42), Aristotelian University of Thessaloniki, which is registered by the official state veterinary authorities (presidential degree 56/2013, in harmonization with the European Directive 2010/63/EEC). The experimental protocols were approved by the Animal Ethics Committee of the Prefecture of Central Macedonia (no. 270079/2500).
Hyperlipidaemia was induced by the i.p. administration of Triton WR 1339 (200 mg/kg) to rats. […] Blood was taken from the aorta after 24 h, for the determination of plasma total cholesterol, LDL-cholesterol and triglyceride concentrations, using commercial kits.

[1] = In vitro nitrogen monoxide release (Griess reagent)
Experimental: Due to their poor aqueous solubility, compounds 1, 3-7 and 9 were dissolved in 7/3 (v/v) mixture of DMSO/water at various concentrations and incubated overnight at room temperature in the presence of cadmium. S-nitroso-N-acetylpenicillamine (SNAP) was dissolved either in DMSO/water 7/3 or in water and treated as above.
Aliquots were taken from each sample and added to an equal volume of N-naphthylaminoethylamine (0.2%) and sulfanilamide (2%) solution in 3 N hydrochloric acid (Griess reagent). Appropriate sodium nitrite solutions in the same DMSO/water mixture were used for the construction of the standard curve and values were identical to those obtained with aqueous solutions. Nitric oxide release was estimated spectrophotometrically (540 nm).

soybean lipoxygenase 1-B = biological target: T1, soybean lipoxygenase 1-B (Glycine max, UniProt P08170); test: In vitro soybean lipoxygenase inhibition, linoleate as substrate; assay type: biochemical; settings: sodium linoleate 100 μM; after 7 min of incubation; pH 9.0, 28 °C
T1 construct: purchased Sigma (St. Louis, MO, U.S.A.)
T1 sequence (P08170 1-839): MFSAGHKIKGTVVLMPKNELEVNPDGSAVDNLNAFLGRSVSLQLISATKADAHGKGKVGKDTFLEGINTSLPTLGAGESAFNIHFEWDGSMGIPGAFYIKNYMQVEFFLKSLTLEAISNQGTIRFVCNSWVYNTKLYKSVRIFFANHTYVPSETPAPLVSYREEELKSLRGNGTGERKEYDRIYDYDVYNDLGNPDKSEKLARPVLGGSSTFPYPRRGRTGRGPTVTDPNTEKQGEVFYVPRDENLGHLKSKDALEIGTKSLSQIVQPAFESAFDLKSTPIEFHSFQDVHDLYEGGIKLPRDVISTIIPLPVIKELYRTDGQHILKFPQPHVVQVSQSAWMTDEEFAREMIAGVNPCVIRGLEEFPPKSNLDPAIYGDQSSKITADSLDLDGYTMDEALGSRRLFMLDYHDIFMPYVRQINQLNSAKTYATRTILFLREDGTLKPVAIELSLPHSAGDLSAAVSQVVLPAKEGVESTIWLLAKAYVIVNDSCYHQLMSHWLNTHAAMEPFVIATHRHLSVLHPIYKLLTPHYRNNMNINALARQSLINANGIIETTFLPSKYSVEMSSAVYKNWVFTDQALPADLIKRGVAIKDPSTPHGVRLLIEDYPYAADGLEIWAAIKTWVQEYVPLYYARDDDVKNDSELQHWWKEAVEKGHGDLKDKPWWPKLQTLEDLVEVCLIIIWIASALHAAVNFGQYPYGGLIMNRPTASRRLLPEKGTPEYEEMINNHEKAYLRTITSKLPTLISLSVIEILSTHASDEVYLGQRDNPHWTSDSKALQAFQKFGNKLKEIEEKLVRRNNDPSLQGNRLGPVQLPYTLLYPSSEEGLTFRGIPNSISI
Experimental: The reaction mixture contained the examined compounds (in absolute ethanol, 1–300 μM), soybean lipoxygenase (in saline, 250 u/mL) and sodium linoleate (100 μM), in Tris–HCl buffer, pH 9.0. The reaction was monitored for 7 min at 28 °C, recording the absorbance at 234 nm. […]

[2] = test system: carrageenan-induced rat paw oedema; test: Carrageenan-induced rat paw oedema; assay type: in vivo, Wistar rats; settings: 0.15 mmol/kg i.p., oedema after 3.5 h, vs carrageenan-only controls; for inhibition in vivo at 150 µmol/kg: Rattus norvegicus, ip, read-out: % Oedema Reduction
Experimental: The carrageenan-induced paw oedema is a well-known and widely used model of acute inflammation. The response to carrageenan inflammation may be divided into three phases. In the first phase (after 1.5 h), histamine and serotonin are released, the second phase (1.5–2.5 h after carrageenan administration) is mediated by kinins, whereas, in the third phase, more than two hours post administration, neutrophil infiltration, prostaglandin production and release of pro-inflammatory cytokines are involved. In this work, oedema was measured 3.5 h post injection.
κ-Carrageenan and lipoxygenase type I-B from soybean were purchased from Sigma (St. Louis, MO, U.S.A.).
The tested compounds (in water with a few drops of Tween 80) were given i.p. (0.15 mmol/kg) to rats, just after the i.d. injection of 0.1 mL of an aqueous carrageenan solution (1% w/v) in the hind paw of rats. The produced oedema, after 3.5 h, was estimated as paw weight increase.

[3] = Interaction with the stable radical DPPH; settings: DPPH 200 μΜ, after 30 min
Experimental: (§1) The antioxidant activity of compounds was estimated by the inhibition of rat hepatic microsomal membrane lipid peroxidation, induced by Fe^+2/ascorbate, estimated as 2-thiobarbituric acid (TBA) reactive material, and by their interaction with the N-centred 1,1-diphenyl-2-picrylhydrazyl (DPPH) stable free radical. […] The percent interaction with DPPH and the IC50 values of compounds 7–9 on rat hepatic microsomal membrane lipid peroxidation, after 45 min of incubation is shown in Table 4.
Compounds (in absolute ethanol, final concentrations 25–200 μM) were added to an ethanolic solution of DPPH (final concentration 200 μM) at room temperature (22 ± 2 °C). Absorbance (517 nm) was recorded after 30 min.

[4] = test system: rat hepatic microsomal membrane lipid peroxidation; test: Fe2+/ascorbate induced lipid peroxidation, TBA reactive material; assay type: biochemical; settings: after 45 min of incubation; read-out: Inhibition of Lipid Peroxidation IC50
Experimental: as §1
The peroxidation of heat-inactivated (90°, 90 s) rat liver microsomal fraction was induced by ascorbic acid (0.2 mM) and ferrous sulphate (10 μΜ). The studied compounds, in dimethylsulfoxide, were added at concentrations 1 μM–1 mM. Aliquots were taken from the incubation mixture (37 °C) for 45 min. Lipid peroxidation was assessed spectrophotometrically (535/600 nm) as 2-thiobarbituric acid reactive material. All compounds and solvents were found not to interfere with the assay.

[5] = 150 μmol/kg i.p., plasma after 24 h, read-out: % Reduction LDL-C (LDL cholesterol)
[6] = 150 μmol/kg i.p., plasma after 24 h, read-out: % Reduction TC (total cholesterol)
[7] = 150 μmol/kg i.p., plasma after 24 h, read-out: % Reduction TG (triglycerides)
[8] = compound 31.25 μM, DMSO/water 7/3, overnight, cadmium
[9] = compound 62.5 μM, DMSO/water 7/3, overnight, cadmium
[10] = compound 125 μM, DMSO/water 7/3, overnight, cadmium
[11] = compound 250 μM, DMSO/water 7/3, overnight, cadmium
[12] = compound 500 μM, DMSO/water 7/3, overnight, cadmium
[13] = read-out: % Reduction LDL-C (LDL cholesterol)
[14] = read-out: % Reduction TC (total cholesterol)
[15] = read-out: % Reduction TG (triglycerides)

Compound | pIC50 (soybean lipoxygenase 1-B) | inhibition in vivo at 150 µmol/kg (hyperlipidaemic rats; [5]) [%] | inhibition in vivo at 150 µmol/kg (hyperlipidaemic rats; [6]) [%] | inhibition in vivo at 150 µmol/kg (hyperlipidaemic rats; [7]) [%] | NO Release [1, 8] [μΜ] | NO Release [1, 9] [μΜ] | NO Release [1, 10] [μΜ] | NO Release [1, 11] [μΜ] | NO Release [1, 12] [μΜ] | inhibition in vivo at 150 µmol/kg [2] [%] | also measured
CC(C)Cc1ccc(C(C)C(=O)OCCO[N+](=O)[O-])cc1 (racemic) [Compound 1, (±)-2-(Nitrooxy)ethyl 2-(4-isobutylphenyl)propanoate] | 4.34 | 80 | 62.2 | 30.1 | 7 | 17 | 40 | 82 | 116 | 76 | 
CC(C)Cc1ccc(C(C)C(=O)OCCc2ccc([N+](=O)[O-])cc2)cc1 (racemic) [Compound 2, (±)-4-Nitrophenethyl 2-(4-isobutylphenyl)propanoate] | 4.62 |  |  |  |  |  |  |  |  | 53 | 
CC(C)Cc1ccc(C(C)C(=O)O)cc1 (stereo not shown) [Ibuprofen, reference compound] |  |  |  |  |  |  |  |  |  | 36 | inhibition in vivo at 300 µmol/kg (hyperlipidaemic rats; [13]): 41.6%; inhibition in vivo at 300 µmol/kg (hyperlipidaemic rats; [14]): 41%; inhibition in vivo at 300 µmol/kg (hyperlipidaemic rats; [15]): 38%
COc1ccc2c(c1)c(CC(=O)O)c(C)n2C(=O)c1ccc(Cl)cc1 [Indomethacin, reference compound] |  |  |  |  |  |  |  |  |  | 42 | 
COc1ccc2cc([C@H](C)C(=O)O)ccc2c1 [Naproxen, reference compound] |  |  |  |  |  |  |  |  |  | 11 | inhibition in vivo at 500 µmol/kg (hyperlipidaemic rats; [13]): 25.5%; inhibition in vivo at 500 µmol/kg (hyperlipidaemic rats; [14]): 53%; inhibition in vivo at 500 µmol/kg (hyperlipidaemic rats; [15]): 43.5%
CCC(C)(C)C(=O)O[C@H]1C[C@@H](C)C=C2C=C[C@H](C)[C@H](CC[C@@H]3C[C@@H](O)CC(=O)O3)[C@H]21 [Simvastatin, reference compound] |  | 70 |  |  |  |  |  |  |  |  | % Reduction TG (triglycerides) (hyperlipidaemic rats; 150 μmol/kg i.p., plasma after 24 h): no effect
S-nitroso-N-acetylpenicillamine [SNAP, reference compound] |  |  |  |  |  |  |  |  |  |  | NO Release ([1]; 100 μM compound, in water): 56.7 μΜ; NO Release ([1]; per 100 μM compound, DMSO/water 7/3): 56.3 μΜ

Further lines, with some results ahead:

pIC50 (soybean lipoxygenase 1-B) | Compound | inhibition in vivo at 150 µmol/kg (hyperlipidaemic rats; [5]) [%] | inhibition in vivo at 150 µmol/kg (hyperlipidaemic rats; [6]) [%] | inhibition in vivo at 150 µmol/kg (hyperlipidaemic rats; [7]) [%] | NO Release [1, 8] [μΜ] | NO Release [1, 9] [μΜ] | NO Release [1, 10] [μΜ] | NO Release [1, 11] [μΜ] | NO Release [1, 12] [μΜ] | inhibition in vivo at 150 µmol/kg [2] [%] | also measured
4.07 | CC(C(=O)OCCO[N+](=O)[O-])c1cccc(C(=O)c2ccccc2)c1 (racemic) [Compound 5, (±)-2-(Nitrooxy)ethyl 2-(3-benzoylphenyl)propanoate] | 57.8 | 46.6 | 40.2 | 4 | 11 | 26 | 57 | 100 | 75 | 
< 3.52 | COc1ccc2cc(C(C)C(=O)OCCO[N+](=O)[O-])ccc2c1 (single isomer, unassigned; (+)) [Compound 4, (+)-2-(Nitrooxy)ethyl 2-(6-methoxynaphthalen-2-yl)propanoate] | 84.6 | 80 | 38.9 | 2.5 | 7 | 17 | 37 | 73 | 70 | % Oedema Reduction [2]: 70 ** %
3.66 | O=C(/C=C/c1ccccc1)OCCO[N+](=O)[O-] [Compound 6, (E)-2-(Nitrooxy)ethyl cinnamate] | 74.8 | 70.9 | 54.4 | 5 | 11 | 22 | 51 | 98 | 61 | 
< 3.52 | Cc1c(C)c2c(c(C)c1O)CCC(C)(C(=O)O)O2 (stereo not shown) [Trolox, 6-hydroxy-2,5,7,8-tetramethylchroman-2-carboxylic acid, reference compound] |  |  |  |  |  |  |  |  |  | Percent Interaction with DPPH ([3]; compound 50 μΜ): 38%; Percent Interaction with DPPH ([3]; compound 100 μΜ): 90%; Percent Interaction with DPPH ([3]; compound 200 μΜ): 92%; pIC50 [4]: 4.60
